Residues, ends and D or L forms follow the SMILES beside them.
What was measured:
[1] = target: T1, peptide 551-574 coated on CM5 chips (Mus musculus, UniProt Q08481); test: Surface plasmon resonance (BIAcore) homophilic binding of peptide 551-574; details: homophilic interaction
T1 construct: made in house; host or cells: chemical synthesis (no expression host)
Experimental: Homophilic binding association and dissociation constants were calculated by surface plasmon resonance (BIAcore® 2000, GE). In brief, peptide 551-574 was coated at 3400 resonance units (RU) on CM5 chips according to the manufacturer's instructions. Soluble peptide 551-574 (12.5, 25, 50 and 100 μM in 200 μl of 10 mM HEPES pH 7.4, 150 mM NaCl, 0.005% Tween 20) was injected at 20 μl/min at 25° C., on the peptide-coated channel and on an uncoated channel. Dissociation was monitored for 300 seconds. Association (kon) and dissociation (koff) constants were calculated using the BlAevaluation® 3.0 Software (GE).

[2] = test system: Spleen cells from C57Bl/6 mice; test: Calcium mobilisation assay in Fluo-3AM-loaded spleen cells; format: cell-based, mouse; details: anti-CD3/CD28, peptide 100 μM; compared with anti-CD31 antibody cross-linking
Experimental: Spleen cells from C57Bl/6 mice were prepared as described in Caligiuri et al. (2005 Arterioscler Thromb Vasc Biol 25:1659-1664). Cells were incubated with Fluo-3AM (Invitrogen, # F1242) as per the instructions of the manufacturer. Fluorescence of calcium-bound tracer was measured in the FITC channel on an LSRII® cytometer (BD Biosciences) prior to and during 60 seconds following the addition of hamster anti-mouse CD3/CD28 monoclonal antibodies (40 μg/ml each) and rat/hamster compBead® (1:50) either alone or in the presence of rat anti-mouse CD31 antibody (clone 390, 10 μg/ml) or in the presence of CD31 peptide 551-574 (100 μM). Negative controls included rat IgG isotype control and scramble peptide. Antibodies and compBeads® were from BD Biosciences.

[3] = test system: CD4+ cells from C57Bl6 mice; test: CD4+ T cell activation, early activation marker CD69 by flow cytometry; format: cell-based, mouse; details: 18 hours culture
Experimental: Alternatively, the T-cell proliferation assay may comprise comparing expression levels of the early activation marker CD69 in T-cells cultured either in the presence or in the absence of the compound to be tested. This assay may for example be performed as follows: • providing purified CD4+ cells (e.g. purified from C57B16 mice); • stimulating said CD4+ cells by addition of anti-CD3 purified antibodies and bone marrow derived dendritic cells; • culturing the cells for about 18 hours; and • analyzing said cells for the expression of the early activation marker CD69, e.g. by flow cytometry; and • comparing CD69 expression in the presence of the compound to be tested.
The immunosuppressive properties of PepReg (10aa) vs the 23 aa parent peptide were evaluated in vitro. Negatively purified CD4+ cells from C57Bl6 mice were stimulated by soluble anti-CD3 purified antibodies and bone marrow derived dendritic cells. Cells from triplicate wells were analyzed for the expression of the early activation marker CD69 after 18 hours culture in complete RPMI medium supplemented with 10% fetal calf serum.

scramble peptide = test: Surface plasmon resonance (BIAcore), channel coated with the scramble peptide; format: binding; details: injection of soluble peptide
[4] = test system: spleen cells from CD31^−/− mice; test: Proliferation in response to TCR stimulation, CD31-/- spleen cells; format: cell-based, mouse
Experimental: CD8^+ T cell-mediated cytolytic activity against allogeneic mouse aortic smooth muscle cells and measurement of macrophage gelatinase (MMP-2/9) activity were performed as previously described for human cells in Caligiuri et al. (2006 Arterioscler Thromb Vasc Biol 26:618-623) using kits and reagents from Invitrogen. Briefly, primary cultures of FVB/N mouse aorta smooth muscle cells were labelled with the lipophylic tracer DIO (green) and co-cultured for 3 hours with CD8+ T cell-enriched spleen cells from C57Bl/6 mice (n=3 scramble peptide and n=3 peptide 551-574, 50 μM). Cytolysis was evaluated by intracellular accumulation of propidium iodide (PI). Cells were analysed by flow cytometry and the % of cytolysis was calculated by expressing the number of dead (PI+) cells among the target (DIO+) cells. Intracellular MMP-2/9 (gelatinase) activity was measured by flow cytometry in 7-day bone-marrow derived macrophages from C57Bl/6 mice (n=3 scramble peptide and n=3 peptide 551-574, 50 μM) three hours after the incorporation of OregonGreen® gelatine (MFI). T-cell proliferation was performed using either human peripheral blood mononuclear cells of spleen cells from C57Bl/6 (CD31^+/+) and CD31^−/− mice (Charles River France) as previously described (Caligiuri et al. 2005 Arterioscler Thromb Vasc Biol 25:1659-1664). Briefly, cells were plated in triplicates at 0.2×10^6 cells/well in a U bottom 96-well plate in complete medium (RPMI 1640, 1% pyruvate, 1% glutamine, 1% penicillin-streptomicyne-fungizone, 10% decomplemented fetal calf serum, all from Invitrogen) containing 1 μg/ml anti-mouse CD3/CD28 or 5 μg/ml anti-human CD3 antibodies (BD) as appropriate. CD31 (551-574) and scramble peptide at 25, 50 and 100 μM final concentration were deposited in the wells just before cell plating. Plated cells were cultured for 72 hours in 5% CO2 at 37° C. (^3H) thymidine (0.5 μCi/well) was added for the last 16 hours and proliferation evaluated using a Tomtec harvester and analysis on a Wallac micro beta counter. Data are expressed as mean±SEM of cpm in triplicates.

[5] = test system: allogeneic mouse aortic smooth muscle cells; test: CD8+ T cell-mediated cytolytic activity against allogeneic smooth muscle cells; format: cell-based; details: peptide 50 μM, 3 hours co-culture
Experimental: CD8^+ T cell-mediated cytolytic activity against allogeneic mouse aortic smooth muscle cells and measurement of macrophage gelatinase (MMP-2/9) activity were performed as previously described for human cells in Caligiuri et al. (2006 Arterioscler Thromb Vasc Biol 26:618-623) using kits and reagents from Invitrogen. Briefly, primary cultures of FVB/N mouse aorta smooth muscle cells were labelled with the lipophylic tracer DIO (green) and co-cultured for 3 hours with CD8+ T cell-enriched spleen cells from C57Bl/6 mice (n=3 scramble peptide and n=3 peptide 551-574, 50 μM). Cytolysis was evaluated by intracellular accumulation of propidium iodide (PI). Cells were analysed by flow cytometry and the % of cytolysis was calculated by expressing the number of dead (PI+) cells among the target (DIO+) cells. Intracellular MMP-2/9 (gelatinase) activity was measured by flow cytometry in 7-day bone-marrow derived macrophages from C57Bl/6 mice (n=3 scramble peptide and n=3 peptide 551-574, 50 μM) three hours after the incorporation of OregonGreen® gelatine (MFI). […] (^3H) thymidine (0.5 μCi/well) was added for the last 16 hours and proliferation evaluated using a Tomtec harvester and analysis on a Wallac micro beta counter. Data are expressed as mean±SEM of cpm in triplicates.

[6] = test system: apolipoprotein E^−/− mice; test: Angiotensin II infusion into aged apolipoprotein E-/- mice: atherosclerotic lesion size and aneurysm formation; format: in vivo, mouse
Experimental: Male 28-week old apolipoprotein E^−/− mice (n=8-10 mice/group) from our breeding facility were maintained on a regular chow diet and kept under standard conditions. Acceleration of atherosclerosis and aneurysm formation was induced by subcutaneous angiotensin II (Sigma, #A9525) infusion (1 mg/kg/d) for 28 days using osmotic minipumps (Alzet, #2004) as previously described (Daugherty et al. J Clin Invest 105:1605-1612). All experiments were approved by our institutional Ethical committee. Atherosclerotic lesion size was measured as previously described (Caligiuri et al. 2005 Arterioscler Thromb Vasc Biol 25:1659-1664). These experiments were repeated twice with similar results.

SMILES: CSCC[C@H](NC(=O)[C@H](CO)NC(=O)[C@@H](N)CO)C(=O)N[C@@H](CCCNC(=N)N)C(=O)N[C@H](C(=O)N[C@@H](CO)C(=O)N1CCC[C@H]1C(=O)N[C@@H](CCCNC(=N)N)C(=O)N[C@@H](CO)C(=O)N[C@@H](CO)C(=O)N[C@H](C(=O)N[C@@H](CC(C)C)C(=O)N[C@@H](C)C(=O)N[C@H](C(=O)N[C@@H](CCCNC(=N)N)C(=O)N[C@H](C(=O)N[C@@H](Cc1ccccc1)C(=O)N[C@@H](CC(C)C)C(=O)N[C@@H](C)C(=O)N1CCC[C@H]1C(=O)N[C@@H](Cc1c[nH]c2ccccc12)C(=O)N[C@@H](CCCCN)C(=O)N[C@@H](CCCCN)C(=O)O)C(C)C)C(C)C)[C@@H](C)O)[C@@H](C)O [peptide 551-574] (H-SSMRTSPRSSTLAVRVFLAPWKK-OH)
- kon ([1]; 25° C., analyte 12.5-100 μM, read-out: association constant (kon)): 134 ± 120 M⁻¹ s⁻¹
- koff ([1]; 25° C., read-out: dissociation constant (koff)): 0.00158 s⁻¹
- Kd ([1]; read-out: affinity at equilibrium): 17.8 ± 9.7 µM
- inhibition of TCR-induced calcium mobilization [2]: as an efficient immunoregulatory strategy as it is the co-ligation of CD3 and CD28 with the distal portion of CD31
- dose at which suppression of CD69 expression was observed [3]: 100 µg/mL
- signal on a channel coated with the scramble peptide (scramble peptide): negligible signal
- proliferation of CD31-/- spleen cells ([4]; highest dose, 100 μM): effect at 100 μM dose also on cells lacking CD31
- proliferation of CD31-/- spleen cells ([4]; highest dose, 100 μM, listed as mouse CD31 peptide 551-574): only the highest dose of the peptide affect proliferation
- proliferation of CD31-/- spleen cells ([4]; low dose of the peptide): no effect
- CD8+ T cell-dependent cytolysis of murine aortic smooth muscle cells [5]: inhibited
- formation of atherothrombotic abdominal aortic aneurysms (AAA) ([6]; daily subcutaneous administration of 50 μM): prevented
- acceleration of plaque growth in the aortic root ([6]; daily subcutaneous administration of 50 μM, 28 days angiotensin II): prevented
- mice with abdominal aortic aneurysm (AAA) present ([6]; peptide-treated mice, both experiments (Exp #1, Exp #2), controls 8/10 and 6/8): 1/8

— patent US10253085B2, “CD31 peptides for the treatment of thrombotic or autoimmune disorders” (INSERM (INSTITUT NATIONAL DE LA SANTE ET DE LA RECHERCHE …, priority 2008, dated 2019)
